Test results published in patent US11622964B2, “Method for destroying cellular mechanical homeostasis and promoting regeneration and repair of tissues and organs, and use thereof” (INSTITUTE OF ZOOLOGY, CHINESE ACADEMY OF SCIENCES, priority 2018, dated 2023).

Legend:
[1] = test system: human embryonic hepatocytes; assay: In vitro amplification of human embryonic hepatocytes; assay type: cell-based; settings: for cell amplification multiple: 12 days of passage culture (3 generations)
Experimental: Resuscitation of Human Embryonic Hepatocytes: human embryonic hepatocytes are removed from a liquid nitrogen tank (aborted fetus, frozen storage date is Jan. 15, 2014, frozen stock solution is cell banker 2, frozen cell number is 2×10^7/tube), quickly placing in a 37° C. water bath; and after melting the cells are immediately inhaled into a 15 ml centrifuge tube containing 5 ml of hepatocyte medium (control group), centrifuging at 50 g, 4° C. for 5 min; the supernatant is discarded, and the cells are resuspended in 500 ul hepatocyte medium and calculated as 1.16×10^6 with a cell recovery rate of 5.8%.
Inoculation of Human Embryonic Hepatocytes: inoculation density is 1×10^5/24 well plate, adding 500 μl hepatocyte medium (control group), hepatocyte medium containing 10 μM small molecules, and hepatocyte medium containing 20 μM small molecules respectively; 24 hours after inoculating, 3 wells of cells in each group are digested respectively to count the number of the cells, then calculating the cell adherent rate. 72 hours after inoculating, 3 wells of cells in each group are digested respectively to count the number of the cells. Multiple of the change of cell number may be obtained through dividing the number of cells at 72 hours after inoculation by the number of cells at 24 hours after inoculation. A portion of the cells per well (⅖ of the cell count) are taken for RNA extraction so as to detect human hepatocyte-related gene expression.
The First Passage of Human Embryonic Hepatocytes: cells are respectively inoculated into a 24-well plate coated with rat tail collagen (as described above), and the inoculum density is ⅗ of the number of cells after 72 hours of primary culture; 3 duplicate wells per group. After 72 hours of cell culture, the cells are digested to count the number. Multiple of the first passage amplification may be obtained through dividing the counted number of cells by the number of cells at the time of inoculation. A portion of the cells per well (⅖ of the cell count) are taken for RNA extraction so as to detect human hepatocyte-related gene expression.
The Second Passage of Human Embryonic Hepatocytes: cells are respectively inoculated into a 24-well plate coated with rat tail collagen (as described above), and the inoculum density is ⅗ of the number of cells after 72 hours of the first passage culture. […] After changing the medium every 2 days and continuing to culture for 144 hours (6 days), the cells are digested and counted. Multiple of the second passage amplification may be obtained through dividing the counted number of cells by the number of cells at the time of inoculation. […]

[2] = test system: human hepatic stellate cells (hLX-2); assay: TGF-β1-induced transformation of human hepatic stellate cells into myofibroblasts; assay type: cell-based; settings: 20 μM, 3 ng/ml TGF-β1, 7 days
Description: (§1) In this example, cell models for in vitro fibrosis are respectively built to activate mouse hepatic stellate Cells (mHSCs, FIG. 13(B)), mouse embryonic fibroblasts (MEFs FIG. 13(C)), mouse adult liver, lung, and heart-derived primary mesenchymal cells (priMCs, FIG. 13(D)), and human hepatic stellate cells (hLX-2, FIG. 13(E)) into myofibroblasts through the induction of TGF-β1. The specific experimental procedure is as shown in FIG. 9A: a medium containing 10% serum is used for the initial cell culture; after 24 hours the medium is replaced with low serum medium (or pre-starvation treatment for 16 hours) while adding 3 ng/ml TGF-β1 with DMSO or Bleb (20 μM); after 7 days the expression of myofibroblast activation marker protein (Acta2), collagen (Col1a1, Col1a2, Col3a1, and Col1a2), and matrix metalloproteinases and inhibitors (collagenases: MmP8, and MmP13; gelatinases: MmP2, and MmP9; a metalloproteinase inhibitor: Timp1/2/3) are identified.

[3] = test system: human fibroblasts; assay: Cellular mechanical homeostasis and cell softening in human fibroblasts (phalloidin staining, immunofluorescence, quantitative PCR); assay type: cell-based
Description: FIG. 1A is a schematic diagram of laser confocal scanning.

[4] = test system: bile duct ligation-induced fibrosis; assay: Bile duct ligation-induced hepatic fibrosis model; assay type: in vivo, mice
Experimental: The ICR, C57Bl/6 mice used in the experiment are purchased from SPF (Beijing) Biotechnology Co., Ltd.; elbow tweezers, finger tweezers, scissors, needle holders, suture needles, suture threads are purchased from Asone Trading Co., Ltd.; antibiotics are purchased from Gibco (15240-062). 8 week-old female mice are used, and they are fasted for 24 hours before the experiment. The mice are anesthetized with 5% chloral hydrate, and intraperitoneally injected with 8 ml/kg. The mice are fixed after anesthesia, and an incision is made in the abdomen to expose the organs. The duodenum of the stomach end is found and gently pulled to find the bile duct, carefully peeling off the bile duct with tweezers, ligating the bile duct with suture thread, then adding antibiotics, and suturing to close the abdominal cavity. The mice are fasted for 12 hours after surgery. 14-20 days after surgery, the skin of the mice is observed to be yellow-green, and drug is administered to mice for treatment. The mice in the modeling group are evenly divided into two groups, and the mice of experimental group are intraperitoneally injected with (−)-blebbistatin. As for the administration method, (−)-blebbistatin is dissolved in DMSO; sequentially adding 2-5% DMSO (final concentration, volume ratio)+30% PEG400 (final concentration, volume ratio)+2% Tween 80 (final concentration, volume ratio), the mice of the control group are injected with a solvent without the small molecule but containing an equal amount of DMSO (denoted as “Con”).

[5] = test system: mouse hepatic stellate cells (mHSCs); assay: TGF-β1-induced transformation of mouse hepatic stellate cells into myofibroblasts; assay type: cell-based; settings: 20 μM, 3 ng/ml TGF-β1, 7 days
Description: as §1

[6] = test system: mouse adult liver, lung, and heart-derived primary mesenchymal cells (priMCs); assay: TGF-β1-induced transformation of mouse primary mesenchymal cells into myofibroblasts; assay type: cell-based; settings: 20 μM, 3 ng/ml TGF-β1, 7 days
Description: as §1

Cc1ccc2c(c1)C(=O)[C@]1(O)CCN(c3ccccc3)C1=N2 [(−)-blebbistatin]
cell amplification multiple ([1]; 20 μM Bleb medium): about 13 times
cell amplification multiple ([1]; 10 μm small-molecule medium): about 22.1 times
expression of human hepatocyte-specific genes ALB and AFP (real-time quantitative PCR) ([1]; 12 days of passage culture in 10 μM and 20 μM small molecule media): still express human hepatocyte-specific genes
cell morphology ([1]; after 12 days of passage culture in small molecule medium): typical hepatocyte morphology
TGF-β1 induced transformation into myofibroblasts and extracellular matrix synthesis [2]: significantly inhibits
inhibitors of metalloproteinases [2]: down-regulation
metalloproteinases for degrading extracellular matrix [2]: promoting the up-regulation
EZH2 protein level and localization [3]: down-regulated and it is localized at the cytoplasm
nucleus morphology ([3]; 20 μM, vs DMSO control): irregular folds
stress fibers in the cell (phalloidin staining) ([3]; 20 μM, vs DMSO control): disintegrated
cells with obvious nuclear localization of stress effect protein YAP1/TAZ ([3]; after drug treatment): 35%
proteins related to regulation of cellular mechanical hardness (quantitative PCR) ([3]; after small molecule treatment): significantly down-regulated
modification of H3K27 trimethylation (immunofluorescence) ([3]; day 4): significantly reduced
active transcriptional region labeled with fluorouridine ([3]; three biological replicates): also distributed near the periphery of the nucleus
heterochromatin HP1 proteins ([3]; vs DMSO control): the control group is significantly stronger than the experimental group
accumulation of collagenous fibers (Sirius Red) ([4]; after 15 days of treatment): significantly inhibited
proliferation of myofibroblasts (α-SMA staining) ([4]; after 15 days of treatment): significantly inhibited
accumulation of collagenous fibers (Sirius Red) ([4]; after 30 days of treatment): significantly inhibits
hepatocyte proliferation (Ki-67 staining) ([4]; during the bile duct ligation process): promotes
state of the mice ([4]; intraperitoneal injection): more active and energetic
TGF-β1 induced transformation into myofibroblasts and extracellular matrix synthesis [5]: significantly inhibits
TGF-β1 induced transformation into myofibroblasts and extracellular matrix synthesis [6]: significantly inhibits
